From patent US10487313B2, “Efficient induction of definitive endoderm from pluripotent stem cells” (Novo Nordisk A/S, priority 2011, dated 2019) come the findings set out here.

“Also recorded” adds a separate entry of the source.

One series has as its system hES SA121 cells. Kind of series: OCT4 and SOX17 protein ICC quantification during DE induction, DEF culture system. The series is classed as cell-based, human. The settings on record: CHIR 3 μM D1 then Activin A D2-3, or D'Amour protocol. As to the method: Human embryonic stem (hES) cells SA121 and […]) were grown on human fibronectin (Sigma) in DEF culture media (Cellartis) with 30 ng/ml bFGF (Invitrogen) and 10 ng/ml Noggin (Peprotech) in 6-96 well plates. Cells were single cell passaged with Rock inhibitor Y-27632 (Calbiochem) and seeded at a density of 40000 cells/cm2 for experiments. Experiments were initiated 4 d after passage. Confluent cultures were washed once in RPMI1640 (Invitrogen) before 24 hour pre-treatment with 0,5-7μM CHIR99021 (Stemgent) in RPMI. Control cells were left untreated in RPMI and D'Amour cells were either left in RPMI or treated with AA (Peprotech)+Wnt3a (R&D Systems) without pre-treatment depending on experimental setup. After 24 hours, pretreated and control cells were washed once with RPMI before adding 100 ng/ml AA in RPMI. D'Amour cells were also treated with 100 ng/ml AA but with 0,2% FBS instead of B27. 24 h later, 2% B27 (Invitrogen) was added to the AA media for 2-3 d. Control cells were treated with B27 to prevent cell death and D'Amour cells with 2% FBS according to published protocol. Media was changed every day. • Day 1: Cells were washed carefully in prewarmed (37° C.) RPMI before starting the differentiation. Day1 medium was premixed (CHIR 3 μM in prewarmed RPMI+PEST) and gently added to cell culture. Volumes were adjusted according to plate formats. • Day 2: Cells were washed carefully in prewarmed (37° C.) RPMI before media change. Day2 medium was premixed (100 ng/ml Activin A in prewarmed RPMI+0.1% PEST) and gently added to cell culture. • Day 3: Day3&4 mediums were premixed (100 ng/ml Activin A and 2% B27 in prewarmed RPMI+0.1% PEST) and gently added to cell culture. • Day 4: DE was harvested or reseeded for further differentiation. Cells were checked under the microscope every day. Cells were washed in PBS+/+ and fixed in 4% formaldehyde for 30 min (10% formaline, VWR). The cells were then washed again three times in PBS and left in PBS (4° C.) until staining. Fixed cells were washed with PBS once, then permeabilized with 0.5% Triton X-100 in PBS for 6 min, washed in PBS and blocked with TNB buffer (0.1 M Tris-HCL pH 7.5, 0.15 M NaCl, 0.5% Blocking Reagent (Perkin Elmer)) for 30 min. Primary antibodies (goat-anti-SOX17 (AF1924, RnD Systems); goat-anti-Brachyury (AF2085, RnD Systems); mouse-anti-OCT4 (sc5279, SantaCruz Biotechnology); goat-anti-PDX1 (AB47383, Abcam)) were added in 0.1% TritonX-100+PBS for 1 h in RT or 4° C. O/N. After a thorough washing step in PBS, secondary antibodies were added together with DAPI in 0.1% Triton X-100+PBS for 45 min at RT, washed thoroughly in PBS and left in PBS until photodocumentation.

Series [1] deals with SA121 hES and chIPS4 iPS cells. Kind of series: Quantitative real-time PCR of PS and DE markers (Brachyury, SOX17) during DE induction. Type of series: cell-based, human. Here is the method: Human embryonic stem (hES) cells SA121 and chIPS4 (Cellartis) were grown on human fibronectin (Sigma) in DEF culture media (Cellartis) with 30 ng/ml bFGF (Invitrogen) and 10 ng/ml Noggin (Peprotech) in 6-96 well plates. Cells were single cell passaged with Rock inhibitor Y-27632 (Calbiochem) and seeded at a density of 40000 cells/cm2 for experiments. Experiments were initiated 4 d after passage.
Confluent cultures were washed once in RPMI1640 (Invitrogen) before 24 hour pre-treatment with 0,5-7μM CHIR99021 (Stemgent) in RPMI. Control cells were left untreated in RPMI and D'Amour cells were either left in RPMI or treated with AA (Peprotech)+Wnt3a (R&D Systems) without pre-treatment depending on experimental setup.
After 24 hours, pretreated and control cells were washed once with RPMI before adding 100 ng/ml AA in RPMI. D'Amour cells were also treated with 100 ng/ml AA but with 0,2% FBS instead of B27. 24 h later, 2% B27 (Invitrogen) was added to the AA media for 2-3 d. Control cells were treated with B27 to prevent cell death and D'Amour cells with 2% FBS according to published protocol. Media was changed every day.
RNA samples were collected after 24 h pre-treatment (D1), after 1 day of AA treatment (D2) and after 1-2 d of AA+B27 treatment (D3-4). Total RNA was extracted with the Rneasy Plus Mini kit (Qiagen) and quantitative real-time PCR was performed using the StepOnePLus system (Applied Biosystems).
Undifferentiated SA121 hES and chIPS4 iPS cells in DEF media (DO) were cultured either in RPMI without CHIR (Ctrl D1) or treated for 24 h with CHIR in RPMI (CHIR D1). The cells were then washed to ensure absence of CHIR and then both conditions were treated with 1 d AA (Ctrl and CHIR d2). […] T fold inductions after 24 h CHIR treatment spanned between 500-100000 compared to undifferentiated cells (d0). T protein levels were also confirmed with ICC (FIG. 2C).
The efficiency levels for both T and SOX17 were highly robust (n>60) and confirmed with IHC and SOX17 quantifications (FIG. 2C and Table 2.). […] SOX17 expression peaked already after one day of AA treatment when cells were subjected to CHIR for 24 h before AA induction.
hES SA121 and ChIPS4 cells were treated with either CHIR (3 μM), BIO (0.5 μM), Wnt3a (200 ng/ml) or AA alone (100 ng/ml) for 24 h prior to AA addition to show CHIR specificity (d1). Additionally, D'Amour (protocol as described in Kroon et al 2008) was tested in parallel.
Chir was titrated at concentrations between 1-7 uM and analyzed after 24 h Chir treatment (D1) and after 2 d of following AA treatment (D3).
For orientation: Real-time PCR tracks product formation cycle by cycle.

Setting [2] is: 24 h CHIR (2-7 μM) in RPMI-1640, then AA containing medium.

With `Cc1c[nH]c(-c2cnc(NCCNc3ccc(C#N)cn3)nc2-c2ccc(Cl)cc2Cl)n1` [CHIR, CHIR99021], in the series on hES SA121 cells (SA121, D1), the “OCT4 ICC % positive cells” value stood at 97.7% and the “SOX17 ICC % positive cells” value was found to be 0%. For the same compound, in the series on hES SA121 cells (SA121, D2), the “OCT4 ICC % positive cells” value is 2.4% and the “SOX17 ICC % positive cells” value turned out to be 72.1%. In the series on hES SA121 cells (SA121, D3), the “OCT4 ICC % positive cells” value came out at 0.2% and the “SOX17 ICC % positive cells” value was 93.1%. Besides, in series [1] (setting [2]), the “time of SOX17 mRNA expression peak” value stood at 2 days and the “time of SOX17 protein expression peak” value lay within 3 to 4 days. The Sox17 expression result in series [1] (CHIR 1 uM, 2 d after AA treatment (D3)) was “significantly lower”. In series [1] (CHIR 3 uM, after 24 h treatment (D1)), the Brachyury induction entry is on record as “significantly seen; also recorded: significantly upregulated”. For the same compound, in series [1] (CHIR concentrations below 2 μM, after 72 hrs), the “DE induction after subsequent AA stimulation” value was “not induced”. The “Brachyury (T) fold induction compared to undifferentiated cells” value in series [1] (after 24 h CHIR treatment (D1), n>60) is reported as 500-100000 fold.
